Data as given in patent US11427783B2, “Perfuming compositions” (Firmenich SA, priority 2016, dated 2022).
Structures can show the parent of a compound that is named as a salt. Where two headings read alike, the source gives them in different places.

What was measured:
[1] = Volatility of perfuming compounds in air; type: physicochemical
[2] = Odor threshold of perfuming compounds in air
[3] = physchem
[4] = Log P (n-octanol/water) of perfuming compounds
[5] = Table 6, perfuming compounds having a fruity note
[6] = Table 8, perfuming compounds having a sweet note
[7] = Table 10, perfuming compounds having a woody note
[8] = Table 9, perfuming compounds having a gourmand note
[9] = Table 5, perfuming compounds having a green note
[10] = n-octanol/water, perfuming compounds having a fruity note (Table 6)

## CCCCCCCCCC(C)C=O (racemic) [(+−)-2-methylundecanal]
[1]; Table 4, watery note
  Volatility: 75.55 μg/l air
[2]; Table 4, watery note
  Odor Threshold: 7.24E−05 μg/l air
[3]; n-octanol/water
  logP: 5.01

## CC(CC=O)CCCC(C)(C)O (racemic) [(+−)-7-hydroxy-3,7-dimethyloctanal]
[1]; Table 4, watery note
  Volatility: 12.81 μg/l air
[2]; Table 4, watery note
  Odor Threshold: 6.98E−03 μg/l air
[3]; n-octanol/water
  logP: 2

## C=C(C)C1CC=C(C)CC1 (single isomer, unassigned; (+)) [(+)-LIMONENE]
[2]; Table 7, citrus note
  Odor Threshold: 1.29E−01 μg/l air

## CC(C)CCCC(C)CCO (racemic)
[1]; Table 7, citrus note
  Volatility: 76.57 μg/l air
[2]; Table 7, citrus note
  Odor Threshold: 4.59E−02 μg/l air
[3]; n-octanol/water
  logP: 4.24

## C/C=C/C(=O)C1C(C)=CCCC1(C)C (racemic)
[1]; [5]
  Volatility (μg/l air): 113.31 μg/l air
[4]; [5]
  Log P (n-octanol/water): 3.65
[4]; [6]
  Log P (n-octanol/water): 3.65
[4]; [7]
  Log P (n-octanol/water): 3.65
[3]; n-octanol/water
  logP: 3.65

## C/C=C/C(=O)[C@@H]1[C@@H](C)C=CCC1(C)C (racemic)
[1]; [6]
  Volatility (μg/l air): 143.53 μg/l air
[1]; [8]
  Volatility (μg/l air): 143.53 μg/l air
[4]; [8]
  Log P (n-octanol/water): 4.13
[3]; n-octanol/water
  logP: 4.13

## CCCCC(CC)C(=O)OC (racemic) [(+−)-methyl 2-ethylhexanoate]
[1]; [7]
  Volatility (μg/l air): 6677.64 μg/l air
[4]; [7]
  Log P (n-octanol/water): 3.37
[3]; n-octanol/water
  logP: 3.37

## CC(C=O)Cc1ccc(C(C)C)cc1 (racemic) [(+−)-3-(4-isopropylphenyl)-2-methylpropanal]
[1]; Table 4, watery note
  Volatility: 24.85 μg/l air
[2]; Table 4, watery note
  Odor Threshold: 3.00E−03 μg/l air
[3]; n-octanol/water
  logP: 3.59

## CCCCC[C@H]1C(=O)CC[C@@H]1CC(=O)OC (racemic) [methyl 2-((1RS,2RS)-3-oxo-2-pentylcyclopentyl)acetate]
[1]; Table 7, citrus note
  Volatility: 2.12 μg/l air
[2]; Table 7, citrus note
  Odor Threshold: 5.77E−04 μg/l air
[3]; n-octanol/water
  logP: 2.92

## Cc1ccc2c(c1)CC(C)(CO)C2 (racemic)
[1]; Table 4, watery note
  Volatility: 4.86 μg/l air
[2]; Table 4, watery note
  Odor Threshold: 1.28E−04 μg/l air
[3]; n-octanol/water
  logP: 3.12

## CCCCCC1CCCC(=O)O1 (racemic) [(+−)-6-pentyltetrahydro-2H-pyran-2-one]
[1]; [5]
  Volatility (μg/l air): 9.61 μg/l air
[1]; [6]
  Volatility (μg/l air): 9.61 μg/l air
[1]; [8]
  Volatility (μg/l air): 9.61 μg/l air
[4]; [6]
  Log P (n-octanol/water): 2.22
[4]; [8]
  Log P (n-octanol/water): 2.22
[3]; n-octanol/water
  logP: 2.22

## CCC(=O)/C=C/C1=C(C)CCCC1(C)C
[1]; [6]
  Volatility (μg/l air): 15.81 μg/l air
[1]; [8]
  Volatility (μg/l air): 15.81 μg/l air
[4]; [8]
  Log P (n-octanol/water): 4.47
[3]; n-octanol/water
  logP: 4.47

## CC/C=C\CC1=C(C)CCC1=O
[1]; [6]
  Volatility (μg/l air): 56.72 μg/l air
[1]; [8]
  Volatility (μg/l air): 56.72 μg/l air
[4]; [8]
  Log P (n-octanol/water): 2.61
[3]; n-octanol/water
  logP: 2.61

## CC1=CCC(C(C)C)=CC1 [1-methyl-4-(2-propanyl)-1,4-cyclohexadiene]
[1]; Table 7, citrus note
  Volatility: 4298.67 μg/l air
[2]; Table 7, citrus note
  Odor Threshold: 1.16E−01 μg/l air
[3]
  logP: 5.87

## CC(OC=O)C1CCCC(C)(C)C1 (stereo not shown) [1-(3,3-DIMETHYL-1-CYCLOHEXYL)ETHYL FORMATE]
[2]; Table 7, citrus note
  Odor Threshold: 2.05E−01 μg/l air
[3]; n-octanol/water
  logP: 4.01

## C/C=C/C(=O)C1=C(C)CCCC1(C)C
[1]; [5]
  Volatility (μg/l air): 81.66 μg/l air
[1]; [7]
  Volatility (μg/l air): 81.66 μg/l air
[4]; [7]
  Log P (n-octanol/water): 3.63
[3]; n-octanol/water
  logP: 3.63

## C=CCCCCCCCCC=O [10-undecenal]
[1]; Table 4, watery note
  Volatility: 136.73 μg/l air
[2]; Table 4, watery note
  Odor Threshold: 3.15E−03 μg/l air
[3]; n-octanol/water
  logP: 3.93

## CCCOC(=O)[C@H](C)OC(C)(C)CC [(−)-PROPYL (S)-2-(1,1-DIMETHYLPROPOXY)PROPANOATE]
[2]; Table 7, citrus note
  Odor Threshold: 4.98E−01 μg/l air
[3]; n-octanol/water
  logP: 3.17

## CC(C)c1cccc(C(C)CC=O)c1 (racemic) [(+−)-3-(3-ISOPROPYL-1-PHENYL)BUTANAL]
[1]; Table 4, watery note
  Volatility: 14.74 μg/l air
[1]; [9]
  Volatility: 14.74 μg/l air
[2]; Table 4, watery note
  Odor Threshold: 7.71E−04 μg/l air

## COc1cc(C=O)ccc1O [4-hydroxy-3-methoxybenzaldehyde]
[1]; [6]
  Volatility (μg/l air): 4.24 μg/l air
[1]; [8]
  Volatility (μg/l air): 4.24 μg/l air
[4]; [8]
  Log P (n-octanol/water): 0.72
[3]; n-octanol/water
  logP: 0.72

## CC/C=C\CC/C=C/C=O [(2E,6Z)-2,6-NONADIENAL″, (2E,6Z)-2,6-NONADIENAL]
[1]; Table 4, watery note
  Volatility: 632.43 μg/l air
[1]; [9]
  Volatility: 632.43 μg/l air
[2]; Table 4, watery note
  Odor Threshold: 1.46E−04 μg/l air

## CCCCCCC1CCCC(=O)O1 (stereo not shown) [6-hexyltetrahydro-2H-pyran-2-one]
[1]; [5]
  Volatility (μg/l air): 4.64 μg/l air
[1]; [6]
  Volatility (μg/l air): 4.64 μg/l air
[1]; [8]
  Volatility (μg/l air): 4.64 μg/l air
[4]; [6]
  Log P (n-octanol/water): 3.00
[4]; [8]
  Log P (n-octanol/water): 3.00
[3]; n-octanol/water
  logP: 3

## C=CCSSCC=C [DIALLYL DISULFIDE]
[1]; [6]
  Volatility (μg/l air): 5487.52 μg/l air
[1]; [8]
  Volatility (μg/l air): 5487.52 μg/l air
[4]; [8]
  Log P (n-octanol/water): 3.30
[3]
  logP: 3.3

## CCCCCC1CCCC1=O (racemic) [(+−)-2-pentylcyclopentanone]
[1]; [6]
  Volatility (μg/l air): 560.22 μg/l air
[1]; [8]
  Volatility (μg/l air): 560.22 μg/l air
[4]; [6]
  Log P (n-octanol/water): 3.62
[4]; [8]
  Log P (n-octanol/water): 3.62
[3]; n-octanol/water
  logP: 3.62

## COc1cc(C=O)ccc1OC(=O)C(C)C
[1]; [5]
  Volatility (μg/l air): 1.01 μg/l air
[1]; [6]
  Volatility (μg/l air): 1.01 μg/l air
[1]; [8]
  Volatility (μg/l air): 1.01 μg/l air
[4]; [6]
  Log P (n-octanol/water): 1.90
[4]; [8]
  Log P (n-octanol/water): 1.90
[3]; n-octanol/water
  logP: 1.9

## CCCCCCCC1CCCC(=O)O1 (racemic) [(+−)-6-heptyltetrahydro-2H-pyran-2-one]
[1]; [5]
  Volatility (μg/l air): 0.90 μg/l air
[1]; [6]
  Volatility (μg/l air): 0.90 μg/l air
[1]; [8]
  Volatility (μg/l air): 0.90 μg/l air
[4]; [6]
  Log P (n-octanol/water): 3.42
[4]; [8]
  Log P (n-octanol/water): 3.42
[3]; n-octanol/water
  logP: 3.42

## C=C(C)CC(C)OC(=O)C(C)C (racemic)
[1]; [6]
  Volatility (μg/l air): 9902.98 μg/l air
[1]; [8]
  Volatility (μg/l air): 9902.98 μg/l air
[4]; [6]
  Log P (n-octanol/water): 3.57
[4]; [8]
  Log P (n-octanol/water): 3.57
[3]; n-octanol/water
  logP: 3.57

## C=C(C)CC(C(C)=O)C(=O)OCC (racemic)
[4]; [10]
  Log P (n-octanol/water): 2.15
[3]; n-octanol/water
  logP: 2.15

## CCCC1CCCC(=O)O1 (racemic) [(+−)-6-propyltetrahydro-2H-pyran-2-one]
[4]; Table 7, citrus note
  Log P (n-octanol/water): 1.47
[3]; n-octanol/water
  logP: 1.47

## CC(=O)CCC1=C(C)CCCC1(C)C
[1]; [6]
  Volatility (μg/l air): 63.61 μg/l air
[1]; [7]
  Volatility (μg/l air): 63.61 μg/l air
[4]; [7]
  Log P (n-octanol/water): 3.99
[3]; n-octanol/water
  logP: 3.99

## CCCC(S)CCOC(C)=O (racemic) [(+−)-3-mercaptohexyl acetate]
[4]; [10]
  Log P (n-octanol/water): 2.64
[3]; n-octanol/water
  logP: 2.64

## C/C=C/c1ccc(O)c(OC)c1 [2-methoxy-4-[(1E)-1-propen-1-yl]phenol]
[1]; [6]
  Volatility (μg/l air): 11.28 μg/l air
[1]; [8]
  Volatility (μg/l air): 11.28 μg/l air
[4]; [8]
  Log P (n-octanol/water): 2.15
[3]; n-octanol/water
  logP: 2.15

## CC/C=C\CCOC(=O)CCC [(3Z)-3-hexen-1-yl butyrate]
[4]; [10]
  Log P (n-octanol/water): 3.59
[3]; n-octanol/water
  logP: 3.59

## C=CC(C)(O)CCC=C(C)C (racemic) [(+−)-3,7-dimethyl-1,6-octadien-3-ol]
[2]; Table 7, citrus note
  Odor Threshold: 8.89E−05 μg/l air

## CC/C=C\CCOC(=O)OC [(3Z)-hex-3-en-1-yl methyl carbonate]
[4]; [10]
  Log P (n-octanol/water): 2.97
[3]; n-octanol/water
  logP: 2.97

## CCCCC/C=C/CCC=O [(E)-4-DECENAL]
[1]; Table 7, citrus note
  Volatility: 691.34 μg/l air
[2]; Table 7, citrus note
  Odor Threshold: 7.59E−05 μg/l air

## CCCCOC(C)=O [BUTYL ACETATE]
[1]
  Volatility (μg/l air): 117207.52 μg/l air
[4]; [6]
  Log P (n-octanol/water): 2.11
[4]; [8]
  Log P (n-octanol/water): 2.11
[3]; n-octanol/water
  logP: 2.11

## CCCCCC(=O)OC [METHYL HEXANOATE]
[4]; [10]
  Log P (n-octanol/water): 2.65
[3]; n-octanol/water
  logP: 2.65

## O=C1CCCCCCC/C=C/CCCCCCO1 [(10E)-oxacycloheptadec-10-en-2-one]
[4]; Table 7, citrus note
  Log P (n-octanol/water): 6.15
[3]; n-octanol/water
  logP: 6.15

## CCCCC/C(C=O)=C\c1ccccc1 [(E)-2-PENTYL-3-PHENYL-2-PROPENAL]
[4]; Table 7, citrus note
  Log P (n-octanol/water): 4.30
[3]; n-octanol/water
  logP: 4.3

## CC(=O)OC/C=C(/C)CCC=C(C)C [(2Z)-3,7-dimethyl-2,6-octadien-1-yl acetate]
[4]; [5]
  Log P (n-octanol/water): 3.81
[3]; n-octanol/water
  logP: 3.81

## CC1CCC(=O)O1 (racemic) [(+−)-4-PENTANOLIDE]
[4]; Table 7, citrus note
  Log P (n-octanol/water): −0.12
[3]
  logP: -0.12
